Article PMC7486443, “Generation of Phenothiazine with Potent Anti-TLK1 Activity for Prostate Cancer Therapy” (iScience, 2020)

Legend:
Assay in all cases: biochemical
Parameters in all cases: DiscoverX KINOMEscan scanMAX competition binding panel, single concentration, percent of control; remaining binding: dose or concentration left out as unconfirmed
Conditions in all cases: KINOMEscan binding, percent of control; read-out: Table S4_SCANMAX REPORT - related to Fig. 1 / Percent Control
[1] = target: T1, ABL1(F317L)-nonphosphorylated (Homo sapiens, UniProt P00519, F317L)
T1 construct: nonphosphorylated
T1 sequence (P00519 whole entry F317L): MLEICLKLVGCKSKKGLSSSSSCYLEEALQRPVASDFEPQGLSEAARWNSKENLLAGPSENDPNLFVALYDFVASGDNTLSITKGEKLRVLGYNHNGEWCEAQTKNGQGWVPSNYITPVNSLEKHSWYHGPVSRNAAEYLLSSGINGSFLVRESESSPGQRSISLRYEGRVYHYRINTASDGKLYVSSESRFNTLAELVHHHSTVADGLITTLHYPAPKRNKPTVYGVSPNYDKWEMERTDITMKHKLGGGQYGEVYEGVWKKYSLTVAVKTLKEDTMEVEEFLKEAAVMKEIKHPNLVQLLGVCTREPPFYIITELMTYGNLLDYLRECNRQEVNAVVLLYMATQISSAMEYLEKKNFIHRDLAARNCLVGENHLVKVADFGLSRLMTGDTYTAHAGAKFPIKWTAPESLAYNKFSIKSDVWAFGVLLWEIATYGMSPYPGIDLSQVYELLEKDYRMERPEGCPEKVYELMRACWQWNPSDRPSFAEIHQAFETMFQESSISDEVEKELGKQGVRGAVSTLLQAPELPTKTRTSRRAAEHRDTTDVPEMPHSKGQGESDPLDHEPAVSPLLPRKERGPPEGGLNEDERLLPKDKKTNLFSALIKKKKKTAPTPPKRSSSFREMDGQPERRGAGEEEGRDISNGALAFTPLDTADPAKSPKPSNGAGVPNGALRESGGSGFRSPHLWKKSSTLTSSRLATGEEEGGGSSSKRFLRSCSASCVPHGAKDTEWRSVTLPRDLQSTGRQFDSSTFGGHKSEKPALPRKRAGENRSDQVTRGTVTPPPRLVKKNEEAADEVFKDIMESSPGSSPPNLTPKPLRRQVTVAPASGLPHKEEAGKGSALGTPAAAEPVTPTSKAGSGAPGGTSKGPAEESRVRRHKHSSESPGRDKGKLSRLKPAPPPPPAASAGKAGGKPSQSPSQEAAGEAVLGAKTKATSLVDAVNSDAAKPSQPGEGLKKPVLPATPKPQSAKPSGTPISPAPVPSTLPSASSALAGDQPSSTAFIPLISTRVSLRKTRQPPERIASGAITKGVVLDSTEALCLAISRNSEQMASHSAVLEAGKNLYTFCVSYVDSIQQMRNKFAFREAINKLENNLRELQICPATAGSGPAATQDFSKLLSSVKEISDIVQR

[2] = target: ABL2 (Homo sapiens, UniProt P42684)
[3] = target: T2, CDK4-cyclinD3 (Homo sapiens, UniProt P11802)
T2 construct: cyclinD3

[4] = target: CLK1 (Homo sapiens, UniProt P49759)
Chain of CLK1 (P49759 whole entry): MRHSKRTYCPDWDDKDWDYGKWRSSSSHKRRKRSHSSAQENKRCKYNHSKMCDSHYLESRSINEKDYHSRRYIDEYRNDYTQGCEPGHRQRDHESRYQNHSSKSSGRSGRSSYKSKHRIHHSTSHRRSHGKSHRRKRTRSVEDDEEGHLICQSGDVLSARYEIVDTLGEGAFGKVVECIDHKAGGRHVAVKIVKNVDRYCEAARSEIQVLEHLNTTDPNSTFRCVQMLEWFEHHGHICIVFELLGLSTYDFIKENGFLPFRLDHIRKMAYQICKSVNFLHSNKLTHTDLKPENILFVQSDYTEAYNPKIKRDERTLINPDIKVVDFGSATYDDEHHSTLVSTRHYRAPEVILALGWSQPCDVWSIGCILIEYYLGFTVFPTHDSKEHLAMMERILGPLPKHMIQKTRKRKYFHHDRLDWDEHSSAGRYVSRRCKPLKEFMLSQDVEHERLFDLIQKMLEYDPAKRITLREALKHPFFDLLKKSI

[5] = target: T3, DCAMKL2 (Homo sapiens, UniProt Q8N568)
T3 construct: gene DCLK2

[6] = target: EPHA1 (Homo sapiens, UniProt P21709)
[7] = target: GRK7 (Homo sapiens, UniProt Q8WTQ7)
[8] = target: LCK (Homo sapiens, UniProt P06239)
[9] = target: LIMK2 (Homo sapiens, UniProt P53671)
Chain of LIMK2 (P53671 whole entry): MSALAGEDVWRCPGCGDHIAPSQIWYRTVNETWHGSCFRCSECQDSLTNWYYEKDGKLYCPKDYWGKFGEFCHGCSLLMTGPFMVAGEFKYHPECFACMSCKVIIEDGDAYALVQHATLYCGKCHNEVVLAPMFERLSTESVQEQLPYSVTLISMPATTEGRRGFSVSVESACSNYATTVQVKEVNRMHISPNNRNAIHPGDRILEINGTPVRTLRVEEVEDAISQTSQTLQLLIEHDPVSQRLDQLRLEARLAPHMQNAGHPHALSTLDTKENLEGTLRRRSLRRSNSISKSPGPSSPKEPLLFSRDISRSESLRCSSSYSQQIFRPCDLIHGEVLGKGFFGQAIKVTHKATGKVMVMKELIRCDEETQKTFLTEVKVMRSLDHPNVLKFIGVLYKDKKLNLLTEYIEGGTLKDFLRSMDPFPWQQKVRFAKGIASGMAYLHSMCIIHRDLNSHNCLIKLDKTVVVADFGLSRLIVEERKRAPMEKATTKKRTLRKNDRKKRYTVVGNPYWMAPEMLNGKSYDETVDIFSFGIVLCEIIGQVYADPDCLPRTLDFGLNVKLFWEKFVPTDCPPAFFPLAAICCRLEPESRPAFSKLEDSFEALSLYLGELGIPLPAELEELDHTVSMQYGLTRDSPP

[10] = target: T4, LKB1 (Homo sapiens, UniProt Q15831)
T4 construct: gene STK11

[11] = target: T5, MLK3 (Homo sapiens, UniProt Q16584)
T5 construct: gene MAP3K11

[12] = target: T6, NIM1 (Homo sapiens, UniProt Q8IY84)
T6 construct: gene NIM1K

[13] = target: T7, PFTAIRE2 (Homo sapiens, UniProt Q96Q40)
T7 construct: gene CDK15

[14] = target: PRKG1 (Homo sapiens, UniProt Q13976)
Chain of PRKG1 (Q13976 whole entry): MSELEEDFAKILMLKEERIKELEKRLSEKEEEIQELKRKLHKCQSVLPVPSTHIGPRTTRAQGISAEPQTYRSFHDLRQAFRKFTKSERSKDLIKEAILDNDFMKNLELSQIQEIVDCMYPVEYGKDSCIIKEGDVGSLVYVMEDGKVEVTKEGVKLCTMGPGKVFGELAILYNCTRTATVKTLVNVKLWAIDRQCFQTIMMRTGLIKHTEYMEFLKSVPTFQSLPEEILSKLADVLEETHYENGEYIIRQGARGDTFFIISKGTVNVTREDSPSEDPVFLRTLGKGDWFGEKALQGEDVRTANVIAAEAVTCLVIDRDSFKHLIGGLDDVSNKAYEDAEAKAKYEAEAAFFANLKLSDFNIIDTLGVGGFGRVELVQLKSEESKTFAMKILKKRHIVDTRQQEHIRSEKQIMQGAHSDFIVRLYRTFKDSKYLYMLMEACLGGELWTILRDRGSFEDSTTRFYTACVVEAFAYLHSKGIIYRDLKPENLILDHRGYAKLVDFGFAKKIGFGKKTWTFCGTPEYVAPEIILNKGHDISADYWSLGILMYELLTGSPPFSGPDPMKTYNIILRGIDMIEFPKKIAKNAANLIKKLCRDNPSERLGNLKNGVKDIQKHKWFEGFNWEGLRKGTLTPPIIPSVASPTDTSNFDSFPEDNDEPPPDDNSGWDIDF

[15] = target: T8, PYK2 (Homo sapiens, UniProt Q14289)
T8 construct: gene PTK2B

[16] = target: TAOK1 (Homo sapiens, UniProt Q7L7X3)
Chain of TAOK1 (Q7L7X3 whole entry): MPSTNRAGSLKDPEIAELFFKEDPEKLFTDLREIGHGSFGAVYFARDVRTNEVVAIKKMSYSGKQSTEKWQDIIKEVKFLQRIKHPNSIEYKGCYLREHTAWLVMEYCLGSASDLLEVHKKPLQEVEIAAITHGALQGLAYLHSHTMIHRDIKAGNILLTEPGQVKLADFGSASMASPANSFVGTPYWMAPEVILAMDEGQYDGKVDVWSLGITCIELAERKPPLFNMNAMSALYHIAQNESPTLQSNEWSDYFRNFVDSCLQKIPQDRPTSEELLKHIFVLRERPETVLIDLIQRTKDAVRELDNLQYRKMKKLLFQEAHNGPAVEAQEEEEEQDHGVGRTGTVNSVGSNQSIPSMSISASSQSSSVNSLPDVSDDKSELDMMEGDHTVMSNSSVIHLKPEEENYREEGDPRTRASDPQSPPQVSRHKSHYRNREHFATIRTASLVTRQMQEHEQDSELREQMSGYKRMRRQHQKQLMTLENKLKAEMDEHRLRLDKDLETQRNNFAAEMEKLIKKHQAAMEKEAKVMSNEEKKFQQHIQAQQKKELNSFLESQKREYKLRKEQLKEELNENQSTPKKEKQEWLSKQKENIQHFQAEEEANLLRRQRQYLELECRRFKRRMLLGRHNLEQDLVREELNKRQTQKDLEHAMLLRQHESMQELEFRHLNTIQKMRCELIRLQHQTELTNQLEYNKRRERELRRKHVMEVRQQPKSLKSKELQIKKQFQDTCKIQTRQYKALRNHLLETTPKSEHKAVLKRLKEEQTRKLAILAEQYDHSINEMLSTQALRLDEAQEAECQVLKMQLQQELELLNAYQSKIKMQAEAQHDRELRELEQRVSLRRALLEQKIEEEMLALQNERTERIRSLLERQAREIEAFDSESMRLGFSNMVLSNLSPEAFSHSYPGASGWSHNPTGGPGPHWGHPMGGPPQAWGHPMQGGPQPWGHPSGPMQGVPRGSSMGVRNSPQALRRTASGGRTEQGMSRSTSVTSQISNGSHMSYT

[17] = target: TNNI3K (Homo sapiens, UniProt Q59H18)
Chain of TNNI3K (Q59H18 whole entry): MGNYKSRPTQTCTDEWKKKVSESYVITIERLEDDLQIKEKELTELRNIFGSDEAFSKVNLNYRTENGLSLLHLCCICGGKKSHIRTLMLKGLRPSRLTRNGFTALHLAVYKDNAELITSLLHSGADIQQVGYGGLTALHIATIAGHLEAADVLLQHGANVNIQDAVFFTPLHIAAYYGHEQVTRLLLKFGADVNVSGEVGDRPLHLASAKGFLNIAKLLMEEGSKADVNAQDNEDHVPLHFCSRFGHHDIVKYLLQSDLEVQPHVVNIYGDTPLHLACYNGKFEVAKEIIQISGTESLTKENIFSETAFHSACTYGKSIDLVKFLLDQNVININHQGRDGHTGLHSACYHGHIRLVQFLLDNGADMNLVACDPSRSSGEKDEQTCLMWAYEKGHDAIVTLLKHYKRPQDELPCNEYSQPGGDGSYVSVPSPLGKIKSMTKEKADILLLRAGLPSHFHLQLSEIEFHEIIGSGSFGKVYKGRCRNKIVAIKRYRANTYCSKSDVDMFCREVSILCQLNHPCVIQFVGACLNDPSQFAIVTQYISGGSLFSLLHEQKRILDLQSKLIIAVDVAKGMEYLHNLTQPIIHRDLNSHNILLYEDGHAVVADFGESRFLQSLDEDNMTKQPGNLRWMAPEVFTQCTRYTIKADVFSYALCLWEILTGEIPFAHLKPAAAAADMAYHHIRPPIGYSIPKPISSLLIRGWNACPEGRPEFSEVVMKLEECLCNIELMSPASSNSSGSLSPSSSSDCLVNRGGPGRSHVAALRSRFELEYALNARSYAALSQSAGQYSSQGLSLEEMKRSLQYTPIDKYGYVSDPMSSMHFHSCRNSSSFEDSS

[18] = target: T9, YANK3 (Homo sapiens, UniProt Q86UX6)
T9 construct: gene STK32C

With c1ccc2c(c1)Sc1ccccc1N2CCN1CCOCC1 [J54] the remaining binding [1] was 98%, the remaining binding [2] was 100% and the remaining binding [3] was 98%. The remaining binding [4] was 85%, the remaining binding [5] was 100% and the remaining binding [6] was 100%. The remaining binding [7] was 100%, the remaining binding [8] was 100% and the remaining binding [9] was 100%. For the same compound, the remaining binding [10] was 89%, the remaining binding [11] was 100% and the remaining binding [12] was 100%. It also gave a remaining binding [13] of 100%, a remaining binding [14] of 86% and a remaining binding [15] of 100%. It also gave a remaining binding [16] of 100%, a remaining binding [17] of 100% and a remaining binding [18] of 100%.
